Target: T1, human TLR8 (Homo sapiens, UniProt Q9NR97)
T1 construct: host or cells: HEK293 (HEK-Blue hTLR8)
T1 sequence (Q9NR97 27-1041): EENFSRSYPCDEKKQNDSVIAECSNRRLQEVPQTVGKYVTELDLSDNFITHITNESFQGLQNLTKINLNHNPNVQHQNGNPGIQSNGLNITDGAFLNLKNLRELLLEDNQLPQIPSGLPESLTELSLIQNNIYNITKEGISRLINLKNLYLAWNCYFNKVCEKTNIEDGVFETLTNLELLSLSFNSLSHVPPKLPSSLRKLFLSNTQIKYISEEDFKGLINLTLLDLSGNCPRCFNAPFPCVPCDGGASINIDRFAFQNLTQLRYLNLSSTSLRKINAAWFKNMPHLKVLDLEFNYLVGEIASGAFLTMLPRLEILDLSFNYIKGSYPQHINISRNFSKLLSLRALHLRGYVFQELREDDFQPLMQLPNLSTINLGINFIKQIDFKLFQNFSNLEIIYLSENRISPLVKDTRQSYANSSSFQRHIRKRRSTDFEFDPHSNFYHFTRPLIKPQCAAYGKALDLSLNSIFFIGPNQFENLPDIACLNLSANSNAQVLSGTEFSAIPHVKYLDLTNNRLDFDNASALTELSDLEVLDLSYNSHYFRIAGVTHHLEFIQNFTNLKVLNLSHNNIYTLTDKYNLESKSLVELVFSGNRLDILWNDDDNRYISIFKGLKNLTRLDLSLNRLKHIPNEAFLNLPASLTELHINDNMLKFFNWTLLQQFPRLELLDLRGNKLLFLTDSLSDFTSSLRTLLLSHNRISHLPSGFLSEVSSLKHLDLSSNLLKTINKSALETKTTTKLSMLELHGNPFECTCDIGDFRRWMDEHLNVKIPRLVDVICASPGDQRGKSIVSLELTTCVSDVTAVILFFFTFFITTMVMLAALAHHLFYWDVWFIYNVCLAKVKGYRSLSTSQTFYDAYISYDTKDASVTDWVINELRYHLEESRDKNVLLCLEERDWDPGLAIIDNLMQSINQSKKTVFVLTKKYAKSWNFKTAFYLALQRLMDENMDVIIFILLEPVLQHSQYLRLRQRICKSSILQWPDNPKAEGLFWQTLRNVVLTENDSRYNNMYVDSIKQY
Experiment: HEK293-Blue-hTLR-8 cells assay
Assay type: cell-based
Conditions: HEK293-Blue-hTLR8 cells, R848 stimulation, 20 hrs; read-out: HEK/hTLR8 IC50
Description: A stable HEK293-Blue-hTLR-8 cell line was purchased from InvivoGen (Cat. #: hkb-htlr8, San Diego, California, USA). These cells were originally designed for studying the stimulation of human TLR8 by monitoring the activation of NF-κB. A SEAP (secreted embryonic alkaline phosphatase) reporter gene was placed under the control of the IFN-β minimal promoter fused to five NF-κB and AP-1-binding sites. The SEAP was induced by activating NF-κB and AP-1 via stimulating HEK-Blue hTLR8 cells with TLR8 ligands. Therefore the reporter expression was declined by TLR8 antagonist under the stimulation of a ligand, such as R848, for incubation of 20 hrs. The cell culture supernatant SEAP reporter activity was determined using QUANTT-BlueTv™ kit (Cat. #: rep-qbl, Invivogen, San Diego, Ca, USA) at a wavelength of 640 nm, a detection medium that turns purple or blue in the presence of alkaline phosphatase.
HEK293-Blue-hTLR8 cells were incubated at a density of 250,000˜450,000 cells/mL in a volume of 170 μL in a 96-well plate in Dulbecco's Modified Eagle's medium (DMEM) containing 4.5 g/L glucose, 50 U/mi penicillin, […] streptomycin, […], 2 mM L-glutamine, 10% (v/v) heat-inactivated fetal bovine serum with addition of 20 μL test compound in a serial dilution in the presence of final DMSO at 1% and 10 μL of 60 μM R848 in above DMEM, perform incubation under 37° C. in a CO2 incubator for 20 hrs. Then 20 μL of the supernatant from each well was incubated with 180 μL Quanti-blue substrate solution at 37° C. for 2 hrs and the absorbance was read at 620-655 nm using a spectrophotometer. The signaling pathway that TLR8 activation leads to downstream NF-κB activation has been widely accepted, and therefore similar reporter assay was modified for evaluating TLR8 antagonist.

| IC50 [nM] | SMILES |
| --- | --- |
| 8 | COC[C@H]1CN(c2cnc([C@@H]3CCN(c4cc(C)nc5c4cnn5C)C[C@H]3C)c(C)c2)CCN1 [Example 29, 4-[(3S,4R)-4-[5-[(3R)-3-(methoxymethyl)piperazin-1-yl]-3-methyl-2-pyridyl]-3-methyl-1-piperidyl]-1,6-dimethyl-pyrazolo[3,4-b]pyridine] |
| 9 | Cc1cc(N2CC[C@@H](c3ncc(N4CC[C@@H](N)[C@H](F)C4)cc3C)[C@H](C)C2)c2cnn(C)c2n1 [Example 31, (3R,4R)-1-[6-[(3S,4R)-1-(1,6-dimethylpyrazolo[3,4-b]pyridin-4-yl)-3-methyl-4-piperidyl]-5-methyl-3-pyridyl]-3-fluoro-piperidin-4-amine] |
| 15 | Cc1cc(N2CC[C@@H](c3ncc(N4CC(C)(N)C4)cc3C)[C@H](C)C2)c2cnn(C)c2n1 [Example 32, 1-[6-[(3S,4R)-1-(1,6-dimethylpyrazolo[3,4-b]pyridin-4-yl)-3-methyl-4-piperidyl]-5-methyl-3-pyridyl]-3-methyl-azetidin-3-amine] |
| 3 | Cc1cc(N2CC[C@@H](c3ncc(N4C[C@H]5NCCO[C@@H]5C4)cc3C)[C@H](C)C2)c2cnn(C)c2n1 [Example 33, (4aR,7aR)-6-[6-[(3S,4R)-1-(1,6-dimethylpyrazolo[3,4-b]pyridin-4-yl)-3-methyl-4-piperidyl]-5-methyl-3-pyridyl]-3,4,4a,5,7,7a-hexahydro-2H-pyrrolo[3,4-b][1,4]oxazine] |
| 11 | Cc1cc(N2CC[C@@H](c3ccc(N4CCNCC4)cn3)[C@H](C)C2)c2cnn(C)c2n1 [Example 34, 1,6-dimethyl-4-[(3S,4R)-3-methyl-4-(5-piperazin-1-yl-2-pyridyl)-1-piperidyl]pyrazolo[3,4-b]pyridine] |
| 9 | Cc1cc(N2CC[C@H](c3ccc(N4CCNCC4)cn3)[C@@H](C)C2)c2cnn(C)c2n1 [Example 35, 1,6-dimethyl-4-[(3R,4S)-3-methyl-4-(5-piperazin-1-yl-2-pyridyl)-1-piperidyl]pyrazolo[3,4-b]pyridine] |
| 21 | CO[C@@H]1CN(c2ccc([C@H]3CCN(c4cc(C)nc5c4cnn5C)C[C@@H]3C)nc2)C[C@H]1N [Example 36, (3R,4R)-1-[6-[(3R,4S)-1-(1,6-dimethylpyrazolo[3,4-b]pyridin-4-yl)-3-methyl-4-piperidyl]-3-pyridyl]-4-methoxy-pyrrolidin-3-amine] |
| 13 | COC[C@H]1CN(c2ccc([C@H]3CCN(c4cc(C)nc5c4cnn5C)C[C@@H]3C)nc2)CCN1 [Example 37, 4-[(3R,4S)-4-[5-[(3R)-3-(methoxymethyl)piperazin-1-yl]-2-pyridyl]-3-methyl-1-piperidyl]-1,6-dimethyl-pyrazolo[3,4-b]pyridine] |
| 11 | Cc1cc(N2CC[C@H](c3ccc(N4CC5(CNCCO5)C4)cn3)[C@@H](C)C2)c2cnn(C)c2n1 [Example 38, 2-[6-[(3R,4S)-1-(1,6-dimethylpyrazolo[3,4-b]pyridin-4-yl)-3-methyl-4-piperidyl]-3-pyridyl]-5-oxa-2,8-diazaspiro[3.5]nonane] |
| 10 | CO[C@H]1CN(c2ccc([C@H]3CCN(c4cc(C)nc5c4cnn5C)C[C@@H]3C)nc2)CC[C@@H]1N [Example 39, (3S,4S)-1-[6-[(3R,4S)-1-(1,6-dimethylpyrazolo[3,4-b]pyridin-4-yl)-3-methyl-4-piperidyl]-3-pyridyl]-3-methoxy-piperidin-4-amine] |
| 7 | Cc1cc(N2CC[C@H](c3ccc(N4CCOC[C@@H](N)C4)cn3)[C@@H](C)C2)c2cnn(C)c2n1 [Example 40, (6S)-4-[6-[(3R,4S)-1-(1,6-dimethylpyrazolo[3,4-b]pyridin-4-yl)-3-methyl-4-piperidyl]-3-pyridyl]-1,4-oxazepan-6-amine] |
| 10 | Cc1cc(N2CC[C@H](c3ccc(N4CC[C@@H](N)[C@H](F)C4)cn3)[C@@H](C)C2)c2cnn(C)c2n1 [Example 41, (3R,4R)-1-[6-[(3R,4S)-1-(1,6-dimethylpyrazolo[3,4-b]pyridin-4-yl)-3-methyl-4-piperidyl]-3-pyridyl]-3-fluoro-piperidin-4-amine] |
| 6 | Cc1cc(N2CC[C@H](c3ccc(N4CC(C)(N)C4)cn3)[C@@H](C)C2)c2cnn(C)c2n1 [Example 43, 1-[6-[(3R,4S)-1-(1,6-dimethylpyrazolo[3,4-b]pyridin-4-yl)-3-methyl-4-piperidyl]-3-pyridyl]-3-methyl-azetidin-3-amine] |

Source: patent US20240360126A1, “PYRAZOLO[3,4-B]PYRIDINE COMPOUNDS FOR THE TREATMENT OF AUTOIMMUNE DISEASE” (Hoffmann-La Roche Inc., priority 2021, published 2024)
